Values quoted from earlier work as cited in US20220133758A1, “TREATMENT OF INFLAMMATORY BOWEL DISEASES WITH 2'-FUCOSYLLACTOSE COMPOUNDS” (CHILDREN'S HOSPITAL MEDICAL CENTER, priority 2017, published 2022).

Key:
[1] = infliximab or adalimumab anti-TNF therapy, despite optimal therapeutic drug monitoring and dosing
[2] = system: fecal Bifidobacterium
[3] = system: EC genes regulating butyrate transport, signaling, and mitochondrial oxidation; conditions: IBD patients who experience mucosal healing

Substance	patients relapsed [1] [%]	Bifidobacterium abundance ([2]; pediatric CD study)	correction of dysbiosis ([2]; suppression of mucosal inflammation)	inflammatory suppression of EC genes regulating butyrate transport, signaling, and mitochondrial oxidation [3]
infliximab: monoclonal anti-TNF antibody	37	not associated with increased Bifidobacterium abundance	only partially corrects	largely corrected
adalimumab	37	–	–	–
